Experiment [1] concerns the target T1, NLRP3 (Homo sapiens, UniProt Q96P20). Briefly: THP-1 cells pyroptosis assay (LPS + nigericin, resazurin read-out). Format: cell-based. Also noted: Seed THP-1 cells (25,000 cells/well) containing 1.0 μg/ml LPS; host or cells: THP-1 cells. As to conditions: NLRP3 inhibitory activity, 1 μg/ml LPS, 5 μM nigericin. How it is done:
The cells were routinely passaged and grown to confluency (˜10^6 cells/ml). On the day of the experiment, THP-1 cells were harvested and resuspended into RPMI medium (without FBS). The cells were then counted and viability (>90%) checked by Trypan blue (Sigma #T8154). […] To this diluted cell solution was added LPS (Sigma #L4524) to give a 1 μg/ml Final Assay Concentration (FAC). 40 μl of the final preparation was aliquoted into each well of a 96-well plate. The plate thus prepared was used for compound screening. The following method step-by-step assay was followed for compound screening. • 1. […] Incubate for 3 hrs at 37° C., 5% CO2 • 4. Add 5 μl nigericin (Sigma #N7143) (FAC 5 μM) to all wells • 5. Incubate for 1 hr at 37° C., 5% CO2 • 6. At the end of the incubation period, spin plates at 300×g for 3 mins and remove supernatant • 7. Then add 50 μl of resazurin (Sigma #R7017) (FAC 100 μM resazurin in RPMI medium without FBS) and incubate plates for a further 1-2 hrs at 37° C. and 5% CO2 • 8.

In experiment [2] the target is T1, NLRP3. Briefly: Human whole blood IL-1β release assay (LPS + nigericin, AlphaLisa). Set-up: Human whole blood in Li-heparin tubes was obtained from healthy donors; from tissue; host or cells: human whole blood from healthy donors. As to conditions: NLRP3 inhibitory activity, 1 μg/ml LPS, 10 μM nigericin, read-out: HWB IC50. Format: cell-based. The method, then:
For systemic delivery, the ability to inhibit NLRP3 when the compounds are present within the bloodstream is of great importance. For this reason, the NLRP3 inhibitory activity of a number of compounds in human whole blood was investigated in accordance with the following protocol. Human whole blood in Li-heparin tubes was obtained from healthy donors from a volunteer donor panel. • 1. […] Incubate for 3 hrs at 37° C., 5% CO2 • 4. Add 10 μl nigericin (Sigma #N7143) (10 μM FAC) to all wells • 5. Incubate for 1 hr at 37° C., 5% CO2 • 6. At the end of the incubation period, spin plates at 300×g for 5 mins to pellet cells and remove 20 μl of supernatant and add to 96-well v-bottom plates for IL-1β analysis (note: these plates containing the supernatants can be stored at -80° C. to be analysed at a later date) • 7. IL-1β was measured according to the manufacturer protocol (Perkin Elmer-AlphaLisa IL-1 Kit A[…]-5000) • 8.
For orientation: In Alpha technology, singlet oxygen from a donor bead excites a nearby acceptor bead.

Where a name gives a salt, the structure may show the parent alone.

One may read the IC50 as the concentration that inhibits the measured activity by half.

T1 sequence (Q96P20 whole entry): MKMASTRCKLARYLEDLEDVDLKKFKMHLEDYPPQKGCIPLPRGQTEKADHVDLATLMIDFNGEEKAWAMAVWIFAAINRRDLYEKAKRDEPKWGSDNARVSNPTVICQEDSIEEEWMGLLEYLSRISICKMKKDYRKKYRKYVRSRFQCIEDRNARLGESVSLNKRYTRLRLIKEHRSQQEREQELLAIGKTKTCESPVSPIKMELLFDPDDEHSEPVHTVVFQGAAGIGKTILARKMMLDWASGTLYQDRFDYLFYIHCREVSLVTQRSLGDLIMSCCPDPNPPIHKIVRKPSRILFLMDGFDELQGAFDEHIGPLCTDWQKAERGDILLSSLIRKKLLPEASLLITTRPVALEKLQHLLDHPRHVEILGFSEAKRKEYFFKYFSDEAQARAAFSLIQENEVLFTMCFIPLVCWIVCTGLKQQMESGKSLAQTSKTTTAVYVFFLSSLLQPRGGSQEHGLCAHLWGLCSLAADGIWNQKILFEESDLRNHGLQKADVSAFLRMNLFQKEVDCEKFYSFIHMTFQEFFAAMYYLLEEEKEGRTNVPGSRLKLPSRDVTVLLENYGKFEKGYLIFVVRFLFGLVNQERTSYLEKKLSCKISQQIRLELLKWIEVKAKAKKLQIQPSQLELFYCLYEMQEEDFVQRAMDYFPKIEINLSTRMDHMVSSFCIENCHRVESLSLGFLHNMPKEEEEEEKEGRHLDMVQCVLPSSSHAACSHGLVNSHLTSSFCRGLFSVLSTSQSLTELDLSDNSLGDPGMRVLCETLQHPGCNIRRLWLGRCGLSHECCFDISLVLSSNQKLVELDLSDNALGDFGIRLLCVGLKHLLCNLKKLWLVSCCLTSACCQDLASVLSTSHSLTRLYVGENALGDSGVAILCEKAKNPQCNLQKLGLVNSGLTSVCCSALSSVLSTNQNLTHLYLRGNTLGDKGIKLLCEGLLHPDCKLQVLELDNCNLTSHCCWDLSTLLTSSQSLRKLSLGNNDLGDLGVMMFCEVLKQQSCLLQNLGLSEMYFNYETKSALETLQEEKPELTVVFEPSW

Turning to `COc1cc(-c2cc(F)cc(C(C)C)c2CCC(=O)NS(=O)(=O)c2ccc(C(C)(C)O)cc2C)ccn1` [Example 3, 3-(4-Fluoro-2-isopropyl-6-(2-methoxypyridin-4-yl)phenyl)-N-((4-(2-hydroxypropan-2-yl)-2-methylphenyl)sulfonyl)propanamide], the IC50 at NLRP3 [1] was 1000 to 5000 nM; on NLRP3 [2], more than 10000 nM.
The corresponding values for `CC(C)n1nc(S(=O)(=O)NC(=O)Nc2c3c(cc4c2CCC4)CCC3)cc1F` [Example 62, 5-Fluoro-N-((1,2,3,5,6,7-hexahydro-s-indacen-4-yl)carbamoyl)-1-isopropyl-1H-pyrazole-3-sulfonamide, sodium salt] are less than 250 nM and more than 10000 nM.
Take `CC(O)c1cc(S(=O)(=O)NC(=O)Nc2c3c(cc4c2CCC4)CCC3)nn1C(C)C` (stereo not shown) [Example 54, N-((1,2,3,5,6,7-Hexahydro-s-indacen-4-yl)carbamoyl)-5-(1-hydroxyethyl)-1-isopropyl-1H-pyrazole-3-sulfonamide]: the IC50 was less than 250 nM at NLRP3 [1] and 500 to 1000 nM on NLRP3 [2].
As to `O=C(Nc1c2c(cc3c1CCC3)CCC2)NS(=O)(=O)c1ccn(CC(F)F)n1` [Example 63, 1-(2,2-Difluoroethyl)-N-((1,2,3,5,6,7-hexahydro-s-indacen-4-yl)carbamoyl)-1H-pyrazole-3-sulfonamide, sodium salt], the IC50 at NLRP3 [1] was less than 250 nM; at NLRP3 [2] it was 1000 to 5000 nM.
On the same counts, the results for `CC(C)n1ccc(S(=O)(=O)NC(=O)Nc2c3c(cc4c2CCC4=O)CCC3)n1` [Example 31, 1-isopropyl-N-((1-oxo-1,2,3,5,6,7-hexahydro-s-indacen-4-yl)carbamoyl)-1H-pyrazole-3-sulfonamide, sodium salt] are 1000 to 5000 nM and 5000 to 10000 nM.
On the same counts, the results for `O=C(Nc1c2c(cc3c1CCC3)C=CC2)NS(=O)(=O)c1cc[nH]n1` [Example 14, N-((1,2,3,5-Tetrahydro-s-indacen-4-yl)carbamoyl)-1H-pyrazole-3-sulfonamide, potassium salt] are 500 to 1000 nM and 5000 to 10000 nM.
Turning to `CC(C)c1cc(F)cc2c1C(C(=O)NS(=O)(=O)c1ccn(C3CC3)n1)CCC2(C)C` (stereo not shown) [Example 6, N-((1-Cyclopropyl-1H-pyrazol-3-yl)sulfonyl)-6-fluoro-8-isopropyl-4,4-dimethyl-1,2,3,4-tetrahydronaphthalene-1-carboxamide], the values for the IC50 on NLRP3 [1] and at NLRP3 [2] were 1000 to 5000 nM and 5000 to 10000 nM, respectively.
As for `O=C(Nc1c2c(cc3c1CCC3)CCC2)NS(=O)(=O)c1cnn(CC(F)(F)F)c1` [Example 41, N-((1,2,3,5,6,7-Hexahydro-s-indacen-4-yl)carbamoyl)-1-(2,2,2-trifluoroethyl)-1H-pyrazole-4-sulfonamide, sodium salt], the half-inhibitory concentration (IC50) was in the range of 250 to 500 nM on NLRP3 [1] and 5000 to 10000 nM on NLRP3 [2].
On the same counts, the results for `NC/C(=C\F)COc1ccc(S(=O)(=O)NC(=O)Nc2c3c(cc4c2CCC4)CCC3)cc1` [Example 17, 4-((2-(Aminomethyl)-3-fluoroallyl)oxy)-N-((1,2,3,5,6,7-hexahydro-s-indacen-4-yl)carbamoyl)benzenesulfonamide, 2,2,2-trifluoroacetate salt] are 250 to 500 nM and 1000 to 5000 nM.
As to `Cc1cc(C(C)(C)O)ccc1S(=O)(=O)NC(=O)Cc1c(C(C)C)cc(F)cc1C(C)C` [Example 2, 2-(4-Fluoro-2,6-diisopropylphenyl)-N-((4-(2-hydroxypropan-2-yl)-2-methylphenyl)sulfonyl)acetamide, potassium salt], the IC50 on NLRP3 [1] is 250 to 500 nM; on NLRP3 [2], more than 10000 nM.
With `Cn1nc(S(=O)(=O)NC(=O)Nc2c3c(cc4c2CCC4)CCC3)cc1CO` [Example 84, N-((1,2,3,5,6,7-Hexahydro-s-indacen-4-yl)carbamoyl)-5-(hydroxymethyl)-1-methyl-1H-pyrazole-3-sulfonamide], the IC50 lay within 250 to 500 nM on NLRP3 [1] and 500 to 1000 nM on NLRP3 [2].
As for `CC(C)(CN1CCCC1)n1ccc(S(=O)(=O)NC(=O)Nc2c3c(cc4c2CCC4)CCC3)n1` [Example 65, N-((1,2,3,5,6,7-Hexahydro-s-indacen-4-yl)carbamoyl)-1-(2-methyl-1-(pyrrolidin-1-yl)propan-2-yl)-1H-pyrazole-3-sulfonamide, sodium salt], the IC50 at NLRP3 [1] was less than 250 nM; on NLRP3 [2] it was 250 to 500 nM.
Consider `CC(C)c1cc(F)cc2c1C(C(=O)NS(=O)(=O)c1cc(C(C)(C)O)cs1)CC2(C)C` (single isomer, unassigned) [Example 9, 5-Fluoro-N-((4-(2-hydroxypropan-2-yl)thiophen-2-yl)sulfonyl)-7-isopropyl-3,3-dimethyl-2,3-dihydro-1H-indene-1-carboxamide, potassium salt (rotamer P2)], for which the 50% inhibitory concentration (IC50) on NLRP3 [1] was 5000 to 10000 nM.
Take `Cc1cc(Br)cc(CC(=O)NS(=O)(=O)c2cc(C(C)(C)O)co2)c1` [Example 94, 2-(3-Bromo-5-methylphenyl)-N-((4-(2-hydroxypropan-2-yl)furan-2-yl)sulfonyl)acetamide]: the half-inhibitory concentration (IC50) at NLRP3 [1] fell in the range of 1000 to 5000 nM.
Consider `CC(C)(C)OC(=O)NC/C(=C\F)COc1ccc(S(=O)(=O)NC(=O)Nc2c3c(cc4c2CCC4)CCC3)cc1` [Example 18, tert-Butyl-(3-fluoro-2-((4-(N-((1,2,3,5,6,7-hexahydro-s-indacen-4-yl)carbamoyl)sulfamoyl)phenoxy)methyl)allyl)carbamate, potassium salt], for which the 50% inhibitory concentration (IC50) at NLRP3 [1] is 1000 to 5000 nM.
As to `CC(C)c1cc(F)cc2c1C(C(=O)NS(=O)(=O)c1ccn(C(C)C)n1)CC2(C)C` (stereo not shown) [Example 10, 5-Fluoro-7-isopropyl-N-((1-isopropyl-1H-pyrazol-3-yl)sulfonyl)-3,3-dimethyl-2,3-dihydro-1H-indene-1-carboxamide, potassium salt (rotamer P2)], the IC50 on NLRP3 [1] fell in the range of 5000 to 10000 nM.
As for `CC(C)c1cc(F)cc2c1C(C(=O)NS(=O)(=O)c1cnn(C3CC3)c1)CC2(C)C` (stereo not shown) [Example 7, N-((1-Cyclopropyl-1H-pyrazol-4-yl)sulfonyl)-5-fluoro-7-isopropyl-3,3-dimethyl-2,3-dihydro-1H-indene-1-carboxamide], the IC50 at NLRP3 [1] lay in the range of 5000 to 10000 nM.
As for `CC(C)OS(=O)(=O)NC(=O)Nc1c2c(cc3c1CCC3)CCC2` [Example 87, Isopropyl (1,2,3,5,6,7-hexahydro-s-indacen-4-yl)carbamoylsulfamate, sodium salt], the concentration for half-maximal inhibition (IC50) at NLRP3 [1] is 1000 to 5000 nM.
Consider `CC(C)c1cccc(O[C@H]2CCOC2)c1NC(=O)NS(=O)(=O)c1ccn(C(C)C)n1` [Example 86, (S)-1-Isopropyl-N-((2-isopropyl-6-((tetrahydrofuran-3-yl)oxy)phenyl)carbamoyl)-1H-pyrazole-3-sulfonamide], for which the half-maximal inhibitory concentration (IC50) on NLRP3 [1] was in the range of 1000 to 5000 nM.
On to `COc1cc(-c2ccc3c(c2NC(=O)NCc2nnn[nH]2)CCC3)ccn1` [Example 88, 1((1H-Tetrazol-5-yl)methyl)-3-(5-(2-methoxypyridin-4-yl)-2,3-dihydro-1H-inden-4-yl)urea], for which the half-inhibitory concentration (IC50) on NLRP3 [1] lay in the range of 5000 to 10000 nM.
As to `CC(C)c1cccc(C(C)C)c1NC(=O)NS(=O)(=O)c1ccn(C(C)C)n1` [Example 68, N-((2,6-Diisopropylphenyl)carbamoyl)-1-isopropyl-1H-pyrazole-3-sulfonamide, sodium salt], the IC50 at NLRP3 [1] is 1000 to 5000 nM.
The same measure, in the same setting: next, `CC(C)(O)c1coc(S(=O)(=O)NC(=O)Cc2cc(C(F)(F)F)cc(C(F)(F)F)c2)c1` [Example 98, 2-(3,5-bis(Trifluoromethyl)phenyl)-N-((4-(2-hydroxy-propan-2-yl)furan-2-yl)sulfonyl)acetamide]: 1000 to 5000 nM; `CC(C)c1cc(F)cc(C(C)C)c1CC(=O)NS(=O)(=O)c1ccn(C(C)C)n1` [Example 26, 2-(4-Fluoro-2,6-diisopropylphenyl)-N-((1-isopropyl-1H-pyrazol-3-yl)sulfonyl)acetamide]: 1000 to 5000 nM; `CC(C)(O)c1coc(S(=O)(=O)NC(=O)Cc2noc3ccccc23)c1` [Example 90, 2-(Benzo[d]isoxazol-3-yl)-N-((4-(2-hydroxypropan-2-yl)furan-2-yl)sulfonyl)acetamide]: 1000 to 5000 nM.
For the molecule `CC(C)c1cc(F)cc(C(C)C)c1CC(=O)NS(=O)(=O)c1ccc2ccccc2c1` [Example 96, 2-(4-Fluoro-2,6-diisopropylphenyl)-1-(2-naphthylsulfonylamino)-1-ethanone], the IC50 on NLRP3 [1] was 1000 to 5000 nM.

These data come from US20220106289A1, “NLRP3 INHIBITORS” (INFLAZOME LIMITED, priority 2018, published 2022).
